Measurements published in PubChem BioAssay (NCI).
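Tested at 5 concentrations; 48 h exposure; 96-well plates; endpoints linearly interpolated, else capped at highest concentration. Abbreviation: GI50, concentration required for 50% inhibition of growth. TGI denotes the concentration required for complete inhibition of growth.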

Experiments:
Experiment in all cases: NCI tumour cell line growth inhibition, 48 h
NCI-H460 lung = system: NCI-H460 lung
SF-295 CNS = system: SF-295 CNS
SK-MEL-5 melanoma = system: SK-MEL-5 melanoma
UACC-62 melanoma = system: UACC-62 melanoma
SN12C renal = system: SN12C renal
HT29 colon = system: HT29 colon
HOP-62 NSCLC = system: HOP-62 NSCLC
IGROV1 ovarian = system: IGROV1 ovarian
HCT-15 colon = system: HCT-15 colon
BT-549 breast = system: BT-549 breast
OVCAR-5 ovarian = system: OVCAR-5 ovarian
SF-268 CNS = system: SF-268 CNS
HCC-2998 colon = system: HCC-2998 colon
SK-MEL-28 melanoma = system: SK-MEL-28 melanoma
M14 melanoma = system: M14 melanoma
SK-OV-3 ovarian = system: SK-OV-3 ovarian
KM12 colon = system: KM12 colon
MDA-MB-231 breast = system: MDA-MB-231 breast
CCRF-CEM leukemia = system: CCRF-CEM leukemia
DU-145 prostate = system: DU-145 prostate
RXF 393 renal = system: RXF 393 renal
MALME-3M melanoma = system: MALME-3M melanoma
U251 CNS = system: U251 CNS
NCI-H23 lung = system: NCI-H23 lung
SF-539 CNS = system: SF-539 CNS
OVCAR-3 ovarian = system: OVCAR-3 ovarian
UO-31 renal = system: UO-31 renal
SW-620 colon = system: SW-620 colon
SR leukemia = system: SR leukemia
NCI/ADR-RES ovarian = system: NCI/ADR-RES ovarian
T-47D breast = system: T-47D breast
OVCAR-4 ovarian = system: OVCAR-4 ovarian
NCI-H226 lung = system: NCI-H226 lung
K-562 leukemia = system: K-562 leukemia
UACC-257 melanoma = system: UACC-257 melanoma
HCT-116 colon = system: HCT-116 colon
A549 NSCLC = system: A549 NSCLC
ACHN renal = system: ACHN renal
LOX IMVI melanoma = system: LOX IMVI melanoma
OVCAR-8 ovarian = system: OVCAR-8 ovarian
MCF7 breast = system: MCF7 breast
EKVX NSCLC = system: EKVX NSCLC
786-0 renal = system: 786-0 renal
HL-60(TB) leukemia = system: HL-60(TB) leukemia
SNB-19 CNS = system: SNB-19 CNS
PC-3 prostate = system: PC-3 prostate
MDA-MB-435 = system: MDA-MB-435
MOLT-4 leukemia = system: MOLT-4 leukemia
SNB-75 CNS = system: SNB-75 CNS
TK-10 renal = system: TK-10 renal
CAKI-1 renal = system: CAKI-1 renal
NCI-H522 lung = system: NCI-H522 lung
HS 578T breast = system: HS 578T breast
COLO 205 colon = system: COLO 205 colon
SK-MEL-2 melanoma = system: SK-MEL-2 melanoma

What does the source list for `O=S(=O)(CCN1CCOCC1)Nc1cc(-c2ccc3ncnc(Nc4ccc(F)c(Cl)c4)c3c2)cnc1Cl`?
GI50 (NCI-H460 lung): 1.56 µM; TGI (NCI-H460 lung): 19.6 µM; GI50 (SF-295 CNS): 0.624 µM; TGI (SF-295 CNS): 4.29 µM; GI50 (SK-MEL-5 melanoma): 0.313 µM; TGI (SK-MEL-5 melanoma): 1.58 µM; GI50 (UACC-62 melanoma): 0.153 µM; TGI (UACC-62 melanoma): 1.09 µM; GI50 (SN12C renal): 0.391 µM; TGI (SN12C renal): > 100 µM; GI50 (HT29 colon): 0.674 µM; TGI (HT29 colon): 17.7 µM; GI50 (HOP-62 NSCLC): 0.578 µM; TGI (HOP-62 NSCLC): 14.2 µM; GI50 (IGROV1 ovarian): 0.137 µM; TGI (IGROV1 ovarian): 0.515 µM; GI50 (HCT-15 colon): 1.23 µM; TGI (HCT-15 colon): 28.9 µM; GI50 (BT-549 breast): 0.254 µM; TGI (BT-549 breast): 2.59 µM; GI50 (OVCAR-5 ovarian): 0.492 µM; TGI (OVCAR-5 ovarian): > 100 µM; GI50 (SF-268 CNS): 0.407 µM; TGI (SF-268 CNS): 27.4 µM; GI50 (HCC-2998 colon): 1.05 µM; TGI (HCC-2998 colon): 7.73 µM; GI50 (SK-MEL-28 melanoma): 0.297 µM; TGI (SK-MEL-28 melanoma): 8.62 µM; GI50 (M14 melanoma): 0.754 µM; TGI (M14 melanoma): 9.42 µM; GI50 (SK-OV-3 ovarian): 0.286 µM; TGI (SK-OV-3 ovarian): 1.94 µM; GI50 (KM12 colon): 2.64 µM; TGI (KM12 colon): 24 µM; GI50 (MDA-MB-231 breast): 1.09 µM; TGI (MDA-MB-231 breast): 4.82 µM; GI50 (CCRF-CEM leukemia): 0.455 µM; TGI (CCRF-CEM leukemia): > 100 µM; GI50 (DU-145 prostate): 0.869 µM; TGI (DU-145 prostate): 25.6 µM; GI50 (RXF 393 renal): 0.239 µM; TGI (RXF 393 renal): 1.35 µM; GI50 (MALME-3M melanoma): 0.115 µM; TGI (MALME-3M melanoma): 0.93 µM; GI50 (U251 CNS): 0.909 µM; TGI (U251 CNS): 10.5 µM; GI50 (NCI-H23 lung): 1.02 µM; TGI (NCI-H23 lung): > 100 µM; GI50 (SF-539 CNS): 0.418 µM; TGI (SF-539 CNS): 2.69 µM; GI50 (OVCAR-3 ovarian): 0.391 µM; TGI (OVCAR-3 ovarian): 3.91 µM; GI50 (UO-31 renal): 0.267 µM; TGI (UO-31 renal): 2.13 µM; GI50 (SW-620 colon): 1.3 µM; TGI (SW-620 colon): 15.8 µM; GI50 (SR leukemia): 0.799 µM; TGI (SR leukemia): 6.96 µM; GI50 (NCI/ADR-RES ovarian): 5.63 µM; TGI (NCI/ADR-RES ovarian): > 100 µM; GI50 (T-47D breast): 0.07 µM; TGI (T-47D breast): 0.975 µM; GI50 (OVCAR-4 ovarian): 1.66 µM; TGI (OVCAR-4 ovarian): 22.5 µM; GI50 (NCI-H226 lung): 0.584 µM; TGI (NCI-H226 lung): 26.4 µM; GI50 (K-562 leukemia): 3.27 µM; TGI (K-562 leukemia): > 100 µM; GI50 (UACC-257 melanoma): 0.498 µM; TGI (UACC-257 melanoma): 8.12 µM; GI50 (HCT-116 colon): 1.38 µM; TGI (HCT-116 colon): 19.2 µM; GI50 (A549 NSCLC): 1.62 µM; TGI (A549 NSCLC): 6.29 µM; GI50 (ACHN renal): 0.735 µM; TGI (ACHN renal): > 100 µM; GI50 (LOX IMVI melanoma): 0.414 µM; TGI (LOX IMVI melanoma): 3.15 µM; GI50 (OVCAR-8 ovarian): 1.67 µM; TGI (OVCAR-8 ovarian): 31.2 µM; GI50 (MCF7 breast): 0.335 µM; TGI (MCF7 breast): 22.9 µM; GI50 (EKVX NSCLC): 0.282 µM; TGI (EKVX NSCLC): 3.64 µM; GI50 (786-0 renal): 0.41 µM; TGI (786-0 renal): > 100 µM; GI50 (HL-60(TB) leukemia): 1.15 µM; TGI (HL-60(TB) leukemia): 12.4 µM; GI50 (SNB-19 CNS): 0.453 µM; TGI (SNB-19 CNS): 4.85 µM; GI50 (PC-3 prostate): 0.36 µM; TGI (PC-3 prostate): 15.1 µM; GI50 (MDA-MB-435): 0.712 µM; TGI (MDA-MB-435): 10.3 µM

Which results are given for `CCOC(=O)CC(c1ccccc1)C(C)(C(=O)OCC)C(=O)OCC` (configuration not stated)?
TGI (MOLT-4 leukemia): > 100 µM; TGI (NCI-H460 lung): > 100 µM; TGI (SF-295 CNS): > 100 µM; TGI (SK-MEL-5 melanoma): > 100 µM; TGI (UACC-62 melanoma): > 100 µM; TGI (SN12C renal): > 100 µM; TGI (HT29 colon): > 100 µM; TGI (HOP-62 NSCLC): > 100 µM; TGI (IGROV1 ovarian): > 100 µM; TGI (HCT-15 colon): > 100 µM; TGI (BT-549 breast): > 100 µM; TGI (OVCAR-5 ovarian): > 100 µM; TGI (SF-268 CNS): > 100 µM; TGI (SNB-75 CNS): > 100 µM; TGI (HCC-2998 colon): > 100 µM; TGI (SK-MEL-28 melanoma): > 100 µM; TGI (M14 melanoma): > 100 µM; TGI (SK-OV-3 ovarian): > 100 µM; TGI (KM12 colon): > 100 µM; TGI (MDA-MB-231 breast): > 100 µM; TGI (TK-10 renal): > 100 µM; TGI (CCRF-CEM leukemia): > 100 µM; TGI (DU-145 prostate): > 100 µM; TGI (RXF 393 renal): 60.9 µM; TGI (MALME-3M melanoma): > 100 µM; TGI (U251 CNS): > 100 µM; TGI (NCI-H23 lung): > 100 µM; TGI (SF-539 CNS): > 100 µM; TGI (CAKI-1 renal): > 100 µM; TGI (UO-31 renal): > 100 µM; TGI (SW-620 colon): > 100 µM; TGI (SR leukemia): > 100 µM; TGI (NCI/ADR-RES ovarian): > 100 µM; TGI (T-47D breast): > 100 µM; TGI (OVCAR-4 ovarian): > 100 µM; TGI (NCI-H226 lung): > 100 µM; TGI (K-562 leukemia): > 100 µM; TGI (UACC-257 melanoma): > 100 µM; TGI (HCT-116 colon): > 100 µM; TGI (A549 NSCLC): > 100 µM; TGI (NCI-H522 lung): > 100 µM; TGI (ACHN renal): > 100 µM; TGI (LOX IMVI melanoma): > 100 µM; TGI (OVCAR-8 ovarian): > 100 µM; TGI (MCF7 breast): > 100 µM; TGI (EKVX NSCLC): > 100 µM; TGI (HS 578T breast): > 100 µM; TGI (786-0 renal): > 100 µM; TGI (HL-60(TB) leukemia): > 100 µM; TGI (COLO 205 colon): > 100 µM; TGI (SNB-19 CNS): > 100 µM; TGI (PC-3 prostate): > 100 µM; TGI (SK-MEL-2 melanoma): > 100 µM
